Measurements published in article PMC9036659, “Boron-containing capsaicinoids” (RSC Advances, 2021).

Experiments:
[1] = system: vancomycin-resistant Enterococcus; design: method as in doi:10.1139/cjc-2018-0193; conditions: data collected in previous study, Inactive = inhibition above 400 μM, cited from earlier work
MRSA = system: MRSA; design: method as in doi:10.1139/cjc-2018-0193; conditions: data collected in previous study; Inactive = inhibition above 400 μM; cited from earlier work
[2] = system: Pseudomonas aeruginosa (ATCC 14210); test: Antimicrobial assay, P. aeruginosa (OD600); type: cell-based
Experimental: (§1) The microorganisms (methicillin-resistant S. aureus MRSA 310, vancomycin-resistant E. faecium VRE 379, S. warneri (ATCC 17917), P. vulgaris (ATCC 12454), P. aeruginosa (ATCC 14210), and C. albicans (ATCC 14035)) were grown overnight on agar media. The following day the cultures were transferred into 0.9% saline water into a sterile glass tube. Using the McFarland reader, the turbidity was determined and further diluted into their respective media. The pure compounds were tested at seven different concentrations ranging from 2 to 128 μg mL^−1 in triplicate. Samples were plated into 96 well plates (10 μL in 20% DMSO) and then diluted pathogen (90 μL) was pipetted into the pre-prepared sample plates yielding 5 × 10^5 cfu mL^−1 with a final volume of 100 μL. Antibiotics that are active against specific pathogens were used as positive controls. The plates were incubated into a 37 °C incubator for 22 h. Growth of S. warneri. P. vulgaris, P. aeruginosa and C. albicans were measured by reading optical density (OD600), or in the case of slow growing microorganisms (MRSA and VRE), PrestoBlue was used to assess metabolic activity by measuring fluorescence (535–560)/(590–615) (excitation/emission) using a Thermo Scientific Varioskan Flash plate reader at time zero and then again after incubation of the plates for 22 h at 37 °C. After subtracting the time zero OD600 from the final reading, the percentages of microorganism survival relative to vehicle control wells were calculated. […]
(§2) Antimicrobial Assay Data Growth of S. warneri. P. vulgaris, P. aeruginosa and C. albicans were measured by reading optical density (OD600), or in the case of slow growing microorganisms (MRSA and VRE), PrestoBlue was used to assess metabolic activity by measuring fluorescence (535-560)⁄(590-615) (excitation/emission) using a Thermo Scientific Varioskan Flash plate reader at time zero and then again after incubation of the plates for 22 h at 37 °C. After subtracting the time zero OD600 from the final reading, the percentages of microorganism survival relative to vehicle control wells were calculated. […]

[3] = system: Candida albicans (ATCC 14035); test: Antimicrobial assay, C. albicans (OD600); type: cell-based
Experimental: as §1, §2

[4] = system: vancomycin-resistant Enterococcus faecium VRE 379; test: Antimicrobial assay, VRE (PrestoBlue fluorescence); type: cell-based
Experimental: as §1, §2

[5] = system: Proteus vulgaris (ATCC 12454); test: Antimicrobial assay, P. vulgaris (OD600); type: cell-based
Experimental: as §1, §2

[6] = system: human colorectal carcinoma cells (HCT116 ATCC CCL-247); test: Cytotoxicity assay (Alamar blue), HCT116; type: cell-based; conditions: for IC50: Homo sapiens, HCT-116, 72 h incubation, average ± SD, Inactive = inhibition above 300 μM, read-out: IC50 HCT (cancer cell line)
Experimental: (§3) The cells (human foreskin BJ fibroblast cells (ATCC CRL-2522), green monkey kidney cells Vero (ATCC CCL-81), human breast adenocarcinoma cells (ATCC HTB-26 MDA-MB 231), human breast adenocarcinoma cells (MCF7 ATCC HTB-22), and human colorectal carcinoma cells (HCT116 ATCC CCL-247)) were grown to 80% confluency, the cells were counted, diluted, and plated into treated 96-well cell culture plates. The BJ fibroblast and Vero cells were plated at a cell density of 10 000 cells per well and the HTB26, HCT116 and MCF7 cells were plated at cell density of 5000 cells per well in 90 μL of respective growth medium (without the addition of antibiotics) and incubated for 24 h to allow cells to adhere to the plates before treatment. Pure compounds were tested in triplicate in serial dilutions of seven concentrations ranging from 2 to 128 μg mL^−1 per well (final well volume of 100 μL, 1% DMSO per well). Each of the cell lines were incubated at 37 °C in a humidified atmosphere of 5% CO2; the BJ fibroblast and Vero cells for 24 h and the HTB-26, HCT116 and MCF7 cells for 72 h. Each plate contained four uninoculated positive controls, four untreated negative controls, and one column containing a concentration range for doxorubicin. Alamar blue was added, 24 h after the treatment, and fluorescence was monitored using a Cytation Gen 5 plate reader using 560 nm Ex/590 Em both at time zero and 4 h after Alamar blue addition. The inferred percentage of cell viability relative to vehicle control wells were calculated after subtracting the time zero emission 590 nm measurement from the final reading and the IC50 was determined. […]
(§4) Cytotoxicity Assay Data Alamar blue was added, 24 h after the treatment, and fluorescence was monitored using a Cytation Gen 5 plate reader using 560 nm Ex/590 Em both at time zero and 4 h after Alamar blue addition. The inferred percentage of cell viability relative to vehicle control wells were calculated after subtracting the time zero emission 590 nm measurement from the final reading and the IC50 was determined.

[7] = system: Staphylococcus warneri (ATCC 17917); test: Antimicrobial assay, S. warneri (OD600); type: cell-based
Experimental: as §1, §2

[8] = system: methicillin-resistant Staphylococcus aureus MRSA 310; test: Antimicrobial assay, MRSA (PrestoBlue fluorescence); type: cell-based
Experimental: as §1, §2

[9] = system: human breast adenocarcinoma cells (MCF7 ATCC HTB-22); test: Cytotoxicity assay (Alamar blue), MCF7; type: cell-based; conditions: for IC50: Homo sapiens, MCF7, read-out: IC50 MCF7 (cancer cell line)
Experimental: as §3, §4

[10] = system: human foreskin BJ fibroblast cells (ATCC CRL-2522); test: Cytotoxicity assay (Alamar blue), BJ; type: cell-based; conditions: for IC50: Homo sapiens, Fibroblast, read-out: IC50 BJ (normal cell line)
Experimental: as §3, §4

[11] = system: human breast adenocarcinoma cells (ATCC HTB-26 MDA-MB 231); test: Cytotoxicity assay (Alamar blue), HTB-26; type: cell-based; conditions: for IC50: Homo sapiens, HTB26, 72 h incubation, average ± SD, Inactive = inhibition above 300 μM, read-out: IC50 HTB (cancer cell line)
Experimental: as §3, §4

[12] = system: green monkey kidney cells Vero (ATCC CCL-81); test: Cytotoxicity assay (Alamar blue), Vero; type: cell-based; conditions: for IC50: Chlorocebus sabaeus, Vero, read-out: IC50 Vero (normal cell line)
Experimental: as §3, §4

[13] = 72 h incubation, average ± SD, Inactive = inhibition above 300 μM
[14] = 24 h incubation, average ± SD, Inactive = inhibition above 300 μM

melting point	SMILES	antimicrobial activity against P. aeruginosa (in words) [2]	antimicrobial activity against C. albicans (in words) [3]	antimicrobial activity against VRE (in words) [4]	antimicrobial activity against P. vulgaris (in words) [5]	cytotoxic activity against HCT116 (in words) [6]	IC50 [6]	antimicrobial activity against S. warneri (in words) [7]	antimicrobial activity against MRSA (in words) [8]	cytotoxic activity against MCF7 (in words) [9]	cytotoxic activity against HTB-26 MDA-MB 231 (in words) [11]	IC50 [11]	cytotoxic activity against BJ (in words) [10]	cytotoxic activity against Vero (in words) [12]	further results
–	COc1cc(CNC(=O)CCCCCCCCCCB2OC(C)(C)C(C)(C)O2)ccc1OCc1ccccc1 [Compound 8b]	–	–	–	–	–	–	–	–	–	–	–	–	–	VRE MIC90 [1]: Inactive; IC50 ([1]; read-out: VRE IC50): 277 µM; IC50 (MRSA): 245 µM; MRSA MIC90 (MRSA): Inactive
31.5 to 33.8 °C	CCCCCC(=O)N(Cc1ccc(OC)c(OC)c1)c1ccccc1 [Compound 21, N-(3,4-dimethoxyphenylmethyl)-N-(phenyl)-hexanamide]	–	–	–	–	–	–	–	–	–	–	–	–	–	–
51.5 to 53.5 °C	CCCCCC(=O)N(Cc1ccc(OC)c(OC)c1)c1ccc(B2OC(C)(C)C(C)(C)O2)cc1 [Compound 23, N-(3,4-dimethoxyphenylmethyl)-N-[4-(4,4,5,5-tetramethyl-1,3,2-dioxaborolan-2-yl)phenyl]-hexanamide]	inactive	inactive	inactive	inactive	selective but low to moderate activity	118 ± 4.9 µM	inactive	inactive	selective but low to moderate activity	selective but low to moderate activity	85.8 ± 7.1 µM	–	–	IC50 MCF7 (cancer cell line) [9, 13]: Inactive; IC50 BJ (normal cell line) [10, 14]: Inactive; IC50 Vero (normal cell line) [12, 14]: Inactive
58.1 to 59.8 °C	CCCCCCCCCC(=O)N(Cc1ccc(OC)c(OC)c1)c1ccc(B2OC(C)(C)C(C)(C)O2)cc1 [Compound 24, N-(3,4-dimethoxyphenylmethyl)-N-[4-(4,4,5,5-tetramethyl-1,3,2-dioxaborolan-2-yl)phenyl]-decanamide]	inactive	inactive	inactive	inactive	unselective cytotoxic effects	33.8 ± 2.1 µM	inactive	inactive	unselective cytotoxic effects	unselective cytotoxic effects	25.2 ± 1.3 µM	unselective cytotoxic effects	unselective cytotoxic effects	IC50 [9, 13]: 24.1 ± 3.8 µM; IC50 [10, 14]: 36.1 ± 0.8 µM; IC50 [12, 14]: 26.9 ± 4.4 µM
–	CCCCc1ccc(N(Cc2ccc(OC)c(OC)c2)C(=O)CCCCCCCCB2OC(C)(C)C(C)(C)O2)cc1 [Compound 33, N-(4-butylphenyl)-N-(3,4-dimethoxybenzyl)-9-(4,4,5,5-tetramethyl-1,3,2-dioxaborolan-2-yl)nonamide]	inactive	inactive	inactive	inactive	unselective cytotoxic effects	20.3 ± 0.7 µM	inactive	inactive	unselective cytotoxic effects	unselective cytotoxic effects	21.2 ± 3.5 µM	unselective cytotoxic effects	unselective cytotoxic effects	IC50 [9, 13]: 3.4 ± 2.2 µM; IC50 [10, 14]: 24.2 ± 0.2 µM; IC50 [12, 14]: 20.9 ± 1.2 µM
–	CCCCCCCCCCCCCCc1ccc(N(Cc2ccc(OC)c(OC)c2)C(=O)CCCCCCCCB2OC(C)(C)C(C)(C)O2)cc1 [Compound 34, N-(3,4-dimethoxybenzyl)-N-(4-tetradecylphenyl)-9-(4,4,5,5-tetramethyl-1,3,2-dioxaborolan-2-yl)nonamide]	inactive	inactive	inactive	inactive	inactive	–	inactive	inactive	inactive	inactive	–	inactive	inactive	–
–	OB(O)c1ccccc1 [Phenylboronic acid]	–	–	–	–	–	–	–	–	–	–	–	–	–	VRE IC50 [1]: Inactive; VRE MIC90 [1]: Inactive; IC50 (MRSA): 170 µM; MRSA MIC90 (MRSA): Inactive
